Earlier results in EP2933251A1, “PHARMACEUTICAL COMPOSITION USABLE FOR THE TREATMENT OF A PATHOLOGY OF THE FOOT OF A HOOFED MAMMAL” (Weyts, Peter, priority 2014, dated 2015).

Test system: vaisseaux sanguins du sabot du cheval
Settings: as stated in WO 2006/100468 A1

## CC(=O)N[C@@H](CS)C(=O)O [N-acétylcystéine]
  contraction des vaisseaux sanguins du sabot du cheval: permet de réduire la contraction des vaisseaux sanguins du sabot du cheval
